Like-named read-outs stand apart in the source and are kept apart here.
Legend:
[1] = system: guinea pig ileum longitudinal muscle myenteric plexus; conditions: percentage inhibition of contraction at 1 μM; data taken from Ananthan et al.; cited from earlier work
μ opioid receptor [2] = molecular target: T1, μ opioid receptor (Rattus norvegicus, UniProt P33535); conditions: read-out: Ki (nM) ± SEM μ; [3H]DAMGO, rat brain membranes; data taken from Ananthan et al.; cited from earlier work
T1 construct: Rat membranes were prepared each day using a partially thawed frozen rat brain; from tissue; host or cells: rat brain membranes

κ1 opioid receptor [3] = molecular target: T2, κ1 opioid receptor (Cavia porcellus, UniProt P41144); conditions: read-out: Ki (nM) ± SEM κ1; [3H]U69,593, guinea pig brain membranes; data taken from Ananthan et al.; cited from earlier work
T2 construct: Guinea pig brain membranes were prepared each day using partially thawed guinea pig brain; from tissue; host or cells: guinea pig brain membranes

δ opioid receptor [4] = molecular target: T3, δ opioid receptor (Rattus norvegicus, UniProt P33533); conditions: data taken from Ananthan et al., cited from earlier work
mouse vas deferens [5] = conditions: percentage inhibition of contraction at 1 μM; data taken from Ananthan et al.; cited from earlier work
[6] = system: μ opioid receptor (PL017) in GPI; conditions: data taken from Ananthan et al.; cited from earlier work
[7] = molecular target: T4, δ opioid receptor (DPDPE) in MVD (Mus musculus, UniProt P32300); conditions: data taken from Ananthan et al.; cited from earlier work
T4 construct: Electrically-induced smooth muscle contractions of mouse vas deferens and strips of guinea pig ileum longitudinal muscle myenteric plexus were used; from tissue; host or cells: mouse vas deferens (male ICR mice)

mouse vas deferens [8] = assay: Agonist activity in MVD smooth muscle preparation, inhibition of contraction; type: cell-based; conditions: read-out: agonist activity MVD IC50 (nM) or % max resp
Description: (§1) Bioassays in GPI and MVD smooth muscle preparations. Electrically-induced smooth muscle contractions of mouse vas deferens and strips of guinea pig ileum longitudinal muscle myenteric plexus were used. Tissues came from maile ICR mice weighing 25–40 g and male Hartley guinea pigs weighing 250–500 g. The tissues were tied to gold chain with suture silk, suspended in 20 mL baths containing 37° C. oxygenated (95% O2, 5% CO2) Krebs bicarbonate solution (magnesium free for the MVD), and allowed to equilibrate for 15 min. The tissues were then stretched to optimal length previously determined to be 1 g tension (0.5 g for MVD) and allowed to equilibrate for 15 min. The tissues were stimulated transmurally between platinum wire electrodes at 0.1 Hz, 0.4 ms pulses (2-ms pulses for MVD), and supramaximal voltage. An initial dose-response curve of DPDPE or PL-017 was constructed at the start of each assay to establish tissue effects, allowing each tissue to be used as its own control.
(§2) Tissues not producing typical results were not used. Experimental compounds were added to the baths in 14–60 μL volumes. Succeeding doses of argonist were added cumulatively to the bath at 3 minute intervals to produce a concentration-response curve. The tissues were then washed extensively with fresh buffer until the original contraction height was re-established. […] Antagonist effects to DPDPE and PL-017 were assayed after incubation of the tissues with 1 μM concentration of the compound in the bath for 30 minutes. The tissues were then washed with fresh buffer for 30 min, and the agonist dose-response curve was repeated. Rightward shifts in the dose-response curves were calculated by dividing the antagonized dose-response curve IC50 value by the unantagoniced IC50 value. IC50 values represent the mean of two to four tissues. IC50 estimates and their associated standard errors were determined by using a computerized nonlinear least-squares method.

[9] = molecular target: T4, δ opioid receptor (DPDPE) in MVD; assay: Antagonist activity against DPDPE in electrically stimulated mouse vas deferens (MVD); type: cell-based; conditions: for antagonist activity DPDPE (δ) MVD IC50 ratio: 1 μM compound, 30 min incubation, IC50 of DPDPE with antagonist divided by control IC50; for Ke selectivity ratio μδ: Ke GPI (μ) over Ke MVD (δ)
Description: as §1, §2

[10] = system: μ opioid receptor (PL017) in GPI; assay: Antagonist activity against PL-017 in electrically stimulated guinea pig ileum (GPI); type: cell-based; conditions: for antagonist activity PL017 (μ) GPI IC50 ratio: 1 μM compound, 30 min incubation, IC50 of PL-017 with antagonist divided by control IC50; for antagonist activity PL017 (μ) GPI Ke: Ke = [antagonist]/(IC50 ratio − 1), PL-017 as agonist, n = 3
Description: as §1, §2

μ opioid receptor [11] = molecular target: T1, μ opioid receptor; assay: Radioligand binding, mu sites, displacement of [3H]DAMGO in rat brain membranes
Description: (§3) Radioligand Binding Assays. Mu binding sites were labeled using [^3H]DAMGO (1–3 nM). Rat membranes were prepared each day using a partially thawed frozen rat brain which was homogenized with a polytron in 10 mL/brain of ice cold 10 mM Tris-HCl, pH 7.0. Membranes were then centrifuged twice at 30,000 g for 10 min and resuspended with ice-cold buffer following each centrifugation. After the second centrifugation, the membranes were resuspended in 50 mM Tris-HCl, pH 7.4 (50 mL/brain) at 25° C. Incubations proceeded for 2 h at 25° C. in 50 mM Tris-HCl, pH 7.4, along with a protease inhibitor cocktail (PIC). The nonspecific binding was determined using 20 μM of levallorphan. Delta binding sites were labeled using [^3]DADLE (2 nM) and rat brain membranes. Rat membranes were prepared each day using a partially thawed frozen rat brain which was homogenized with a polytron in 10 mL/brain of ice cold 10 mM Tris-HCl, pH 7.0. Membranes were then centrifuged twice at 30,000 g for 10 min and resuspended with ice-cold buffer following each centrifugation. After the second centrifugation, the membranes were resuspended in 50 mM Tris-HCl, pH 7.4 (50 mL/brain) at 25° C. Incubations proceeded for 2 h at 25° C. in 50 mM Tris-HCl pH 7.4, containing 100 mM choline chloride, 3 mM MnCl2, and 100 nM DAMGO to block binding to μ sites, and PIC. Nonspecific binding was determined using 20 μM levallorphan. Kappa binding sites were labeled using [^3H]U69,593 (2 nM). Guinea pig brain membranes were prepared each day using partially thawed guinea pig brain which was homogenized with a polytron in 10 mL/brain of ice cold 10 mM Tris-HCl pH 7.0. The membranes were then centrifuged twice at 30,000 g for 10 min and resuspended with ice-cold buffer following each centrifugation. After the second centrifugation, the membranes were resuspended in 50 mM Tris-HCl, pH 7.4 (75 mL/brain) at 25° C. Incubations proceeded for 2 h at 25° C. in 50 mM Tris-HCl, pH 7.4, containing 1 μg/mL of captopril and PIC. Nonspecific binding was determined using 1 μM U69,593. Each ^3H ligand was displaced by 8–10 concentrations of test drug, two times. Compounds were prepared as 1 mM solution with 10 mM Tris buffer (pH 7.4) containing 10% DMSO before drug dilution. All drug dilutions were done at 10 mM Tris-HCl, pH 7.4, containing 1 mg/mL bovine serum albumin. All washes were done with ice-cold 10 mM Tris-HCl, pH 7.4. The IC50 and slope factor (N) were obtained by using the program MLAB-PC (Civilized Software, Bethesda, Md.). Ki values were calculated according to the equation Ki=IC50/(1+[L]/Kd).

κ1 opioid receptor [12] = molecular target: T2, κ1 opioid receptor; assay: Radioligand binding, kappa sites, displacement of [3H]U69,593 in guinea pig brain membranes
Description: as §3

δ opioid receptor [13] = molecular target: T3, δ opioid receptor; assay: Radioligand binding, delta sites, displacement of [3H]DADLE in rat brain membranes; set-up: Rat membranes were prepared each day using a partially thawed frozen rat brain; from tissue; host or cells: rat brain membranes; conditions: for Selectivity Ratio κ1δ / Selectivity Ratio μ/δ: thienomorphinans, ratio of Ki values
Description: as §3

[14] = system: guinea pig ileum longitudinal muscle myenteric plexus; assay: Agonist activity in GPI smooth muscle preparation, inhibition of contraction; type: cell-based; conditions: Cavia porcellus; read-out: agonist activity GPI IC50 (nM) or % max resp
Description: as §1, §2

T3 sequence (P33533 whole entry): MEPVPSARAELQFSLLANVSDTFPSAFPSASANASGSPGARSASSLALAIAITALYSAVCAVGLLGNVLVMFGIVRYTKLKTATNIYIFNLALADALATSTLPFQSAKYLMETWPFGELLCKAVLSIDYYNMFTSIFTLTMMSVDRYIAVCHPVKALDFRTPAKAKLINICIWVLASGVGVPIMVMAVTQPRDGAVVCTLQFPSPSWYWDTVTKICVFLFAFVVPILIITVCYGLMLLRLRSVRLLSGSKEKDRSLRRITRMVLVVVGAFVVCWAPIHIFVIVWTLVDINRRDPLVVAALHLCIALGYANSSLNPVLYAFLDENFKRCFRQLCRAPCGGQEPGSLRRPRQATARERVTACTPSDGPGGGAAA
T2 sequence (P41144 whole entry): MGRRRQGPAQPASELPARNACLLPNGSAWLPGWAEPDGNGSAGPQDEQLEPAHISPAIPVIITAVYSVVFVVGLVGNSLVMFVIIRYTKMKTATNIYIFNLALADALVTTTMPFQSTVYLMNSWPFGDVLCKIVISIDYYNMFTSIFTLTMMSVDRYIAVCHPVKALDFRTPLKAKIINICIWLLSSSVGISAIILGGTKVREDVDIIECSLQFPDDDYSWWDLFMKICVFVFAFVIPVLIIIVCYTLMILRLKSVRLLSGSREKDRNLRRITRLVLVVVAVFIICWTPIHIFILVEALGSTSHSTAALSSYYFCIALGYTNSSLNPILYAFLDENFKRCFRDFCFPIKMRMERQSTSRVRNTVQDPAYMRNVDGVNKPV
T1 sequence (P33535 whole entry): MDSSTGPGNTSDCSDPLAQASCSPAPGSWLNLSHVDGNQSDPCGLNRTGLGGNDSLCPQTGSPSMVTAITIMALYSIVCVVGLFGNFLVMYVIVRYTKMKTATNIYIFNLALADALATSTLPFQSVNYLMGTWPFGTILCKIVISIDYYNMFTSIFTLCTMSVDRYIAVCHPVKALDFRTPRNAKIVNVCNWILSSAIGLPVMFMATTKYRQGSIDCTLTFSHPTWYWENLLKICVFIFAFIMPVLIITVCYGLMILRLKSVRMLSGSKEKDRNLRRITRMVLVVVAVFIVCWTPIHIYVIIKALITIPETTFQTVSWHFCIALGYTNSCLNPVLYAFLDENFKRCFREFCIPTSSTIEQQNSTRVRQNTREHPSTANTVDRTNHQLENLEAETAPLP
T4 sequence (P32300 whole entry): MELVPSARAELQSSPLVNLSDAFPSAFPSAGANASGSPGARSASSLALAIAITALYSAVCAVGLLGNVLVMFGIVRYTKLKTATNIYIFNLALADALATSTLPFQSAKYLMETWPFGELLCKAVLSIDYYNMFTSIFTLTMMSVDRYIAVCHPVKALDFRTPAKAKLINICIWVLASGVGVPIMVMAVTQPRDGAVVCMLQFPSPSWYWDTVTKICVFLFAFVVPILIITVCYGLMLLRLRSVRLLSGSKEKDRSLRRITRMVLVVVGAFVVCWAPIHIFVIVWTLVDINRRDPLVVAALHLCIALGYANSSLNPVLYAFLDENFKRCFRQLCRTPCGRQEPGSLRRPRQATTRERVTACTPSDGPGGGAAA

Structure (SMILES)	inhibition at 1 µM (mouse vas deferens [8]) [%]	Kb [9] [nM]	antagonist activity DPDPE (δ) MVD IC50 ratio [9]	Ke selectivity ratio μδ [9]	antagonist activity PL017 (μ) GPI IC50 ratio [10]	antagonist activity PL017 (μ) GPI Ke [10] [nM]	Ki (μ opioid receptor [11]) [nM]	Ki (κ1 opioid receptor [12]) [nM]	Ki (δ opioid receptor [13]) [nM]	Selectivity Ratio κ1δ (δ opioid receptor [13])	Selectivity Ratio μ/δ (δ opioid receptor [13])	inhibition at 1 µM [14] [%]	other results
Oc1ccc2c3c1OC1c4ncccc4CC4(O)C(C2)N(CC2CC2)CCC314 (stereo not drawn) [Compound 7a]	–	–	–	–	–	–	–	–	–	–	–	–	agonist activity GPI IC50 (nM) or % max resp [1]: 0%; Ki (μ opioid receptor [2]): 1.5 ± 0.09 nM; Ki (κ1 opioid receptor [3]): 8.8 ± 0.69 nM; Selectivity Ratio κ1δ (δ opioid receptor [4]; ratio of Ki values): 11; Selectivity Ratio μ/δ (δ opioid receptor [4]; ratio of Ki values): 1.9; Ki (δ opioid receptor [4]; read-out: Ki (nM) ± SEM δ, [3H]DADLE, rat brain membranes): 0.78 ± 0.06 nM; agonist activity MVD IC50 (nM) or % max resp (mouse vas deferens [5]): 0%; antagonist activity PL017 (μ) GPI IC50 ratio [6]: 7.08 ± 3.44; antagonist activity PL017 (μ) GPI Ke [6]: 164 nM; Ke selectivity ratio μδ [7]: 4.4; antagonist activity DPDPE (δ) MVD IC50 ratio [7]: 27.9 ± 1.2; antagonist activity DPDPE (δ) MVD Ke [7]: 37 nM
NC(=O)c1c(N)sc2c1[C@@H]1Oc3c(O)ccc4c3[C@@]13CCN(CC1CC1)[C@H](C4)[C@]3(O)C2 [Compound 8e, 5′-Amino-4′-aminocarbonyl-17-(cyclopropylmethyl)-6,7-didehydro-3,14-dihydroxy-4,5α-epoxythieno[2′,3′:7,6]morphinan]	5	10	118.6 ± 38.4	2.4	47.8 ± 10.7	24	21 ± 1.3	2 ± 0.2	3.7 ± 0.2	0.5	5.7	4	–
COC(=O)c1c(N)sc2c1[C@@H]1Oc3c(O)ccc4c3[C@@]13CCN(CC1CC1)[C@H](C4)[C@]3(O)C2 [Compound 8b, 5′-Amino-4′-carbomethoxy-17-(cyclopropylmethyl)-6,7-didehydro-3,14-dihydroxy-4,5α-epoxythieno[2′,3′:7,6]morphinan]	0	21	53.5 ± 10.1	1.7	39.1 ± 11.6	35	29 ± 4	8.7 ± 0.34	6.6 ± 0.3	1.3	4.4	0	–
Nc1sc2c(c1C(=O)c1ccccc1)[C@@H]1Oc3c(O)ccc4c3[C@@]13CCN(CC1CC1)[C@H](C4)[C@]3(O)C2 [Compound 8f, 5′-Amino-4′-benzoyl-17-(cyclopropylmethyl)-6,7-didehydro-3,14-dihydroxy-4,5α-epoxythieno[2′,3′:7,6]morphinan]	15	46	24.4 ± 4.0	1.3	21.6 ± 7.7	62	50 ± 3	14 ± 0.7	14 ± 0.7	1.0	3.6	25	–
CCOC(=O)c1c(N)sc2c1[C@@H]1Oc3c(O)ccc4c3[C@@]13CCN(CC1CC1)[C@H](C4)[C@]3(O)C2 [Compound 8c, 5′-Amino-4′-carbethoxy-17-(cyclopropylmethyl)-6,7-didehydro-3,14-dihydroxy-4,5α-epoxythieno[2′,3′:7,6]morphinan]	11	68	19.8 ± 6.6	0.4	46.0 ± 21.9	26	20 ± 1	9 ± 0.81	5 ± 0.2	1.8	4.0	0	–

Source: US7105675B2, “Pyridomorphinans, thienomorphinans and use thereof” (Southern Research Institute, priority 1999, dated 2006)
